Results from PMC8596301 (Frontiers in Pharmacology, 2021).
Like-named read-outs stand apart in the source and are kept apart here.

Key:
wild-type C57Bl/6 mice [1] = conditions: cited from earlier work
μOR = μOR (Homo sapiens, UniProt P35372); assay: biochemical; format: binding
HA-mouse µOR [2] = biological target: T1, HA-mouse µOR (Mus musculus, UniProt P42866); assay: cell-based; conditions: for Emax: HEK293, read-out: cAMP α (% inhibition at maximal efficacy)
T1 construct: expressed in transfected cells; host or cells: HEK cells (HEK-293), transient, co-transfected with pGloSensor22F

wild-type C57Bl/6 mice [3] = assay: Two-bottle choice alcohol paradigm (drinking in the dark, 10% ethanol vs. water); format: in vivo, mouse; conditions: WT male mice
Experimental: (§1) Mice were subject to drinking in the dark (DID), limited access (4 h per day), two-bottle choice (10% ethanol vs. water) paradigm in which they were trained to consume alcohol voluntarily as previously described ([Rhodes et al., 2005]; [van Rijn and Whistler, 2009]). Mice reached stable alcohol consumption within 3 weeks of training, and after the third week, drug injections were administered prior to the daily drinking session on Friday. Drug’s effect on alcohol consumption was measured as the change in Friday’s alcohol intake minus the average alcohol intake from the preceding Tuesday–Thursday of that week (g∙kg^−1). A summary of all statistical analyses for the drinking data can be found in Supplemental Tables S6–S9. In brief, results from two-bottle choice alcohol consumption paradigms were assessed for statistical significance using RM two-way ANOVA for main effects of drug dose, treatment day, and drug dose × treatment day; Sidak’s multiple comparisons (MC) between alcohol consumption baseline (Tuesday–Thursday average) vs. treatment day consumption (Friday) were then used as the post hoc test for each drug dose tested. The same RM two-way ANOVA and Sidak’s MC post hoc analyses were used for water consumption and ethanol preference data. […] Sex differences between baseline data were evaluated using RM two-way ANOVA for main effects of sex, treatment baseline, and sex × treatment baseline; Sidak’s multiple comparisons (MC) between male and female mice were then used as the post hoc test for each treatment week tested.

δOR [4] = biological target: T2, δOR (Homo sapiens, UniProt P41143); assay: biochemical; format: binding
FLAG-mouse δOR [5] = biological target: T3, FLAG-mouse δOR (Mus musculus, UniProt P32300); assay: cell-based; conditions: for Emax: HEK293, read-out: cAMP α (% inhibition at maximal efficacy)
T3 construct: expressed in transfected cells; host or cells: HEK cells (HEK-293), transient, co-transfected with pGloSensor22F

κOR = κOR (Homo sapiens, UniProt P41145); assay: biochemical; format: binding
HA-mouse µOR [6] = biological target: T1, HA-mouse µOR; conditions: cited from earlier work
C57Bl/6 male mice [7] = assay: Locomotor evaluation (ambulation); conditions: 7-hydroxymitragynine 3 mg∙kg^−1 i.p.; naloxone 1 mg∙kg^−1 s.c. 10 min prior; WT male mice; 90 min
C57Bl/6 male mice [8] = conditions: 3 mg∙kg^−1; ref Gutridge et al., 2020; cited from earlier work
δOR [9] = biological target: T2, δOR; set-up: expressed in transfected cells; method as in Gutridge et al., 2020; conditions: ref Gutridge et al., 2020; cited from earlier work
FLAG-mouse δOR [10] = biological target: T3, FLAG-mouse δOR; set-up: method as in Gutridge et al., 2020; conditions: cited from earlier work
FLAG-mouse κOR [11] = biological target: T4, FLAG-mouse κOR (Mus musculus, UniProt P33534); set-up: method as in Gutridge et al., 2020; conditions: cited from earlier work
T4 construct: expressed in transfected cells; host or cells: HEK cells (HEK-293), transient, co-transfected with pGloSensor22F

δOR KO mice = assay: Two-bottle choice alcohol paradigm (drinking in the dark, 10% ethanol vs. water); format: in vivo, mouse; conditions: speciociliatine 30 mg∙kg^−1 i.p.; δOR KO male mice
Experimental: as §1

FLAG-mouse κOR [12] = biological target: T4, FLAG-mouse κOR; assay: cell-based
[13] = tested on: wild-type and δOR KO male mice; assay: Accelerating rotarod test; format: in vivo, mouse
Experimental: Mice were trained to walk on a rotarod apparatus (IITC, United States) with 1.25” diameter drums 2 days prior to drug testing. The rotarod started at 3 rpm and was increased to 30 rpm over 300 s. A trial for a mouse ended when it fell and tripped the sensor, when it rode the rotarod for two consecutive revolutions, or after 300 s (the maximum trial time)([White et al., 2015]). Mice received at least 3 min of rest between trials. On test day, baseline performance was assessed as the average latency to fall in three trials per mouse. […] Each mouse’s performance was normalized to its own baseline and reported as a percentage. A summary of all statistical analyses for the rotarod data can be found in Supplemental Table S2. In brief, data for each tested timepoint were calculated as a percentage of the baseline, and thus statistical significance was calculated in a two-tailed, one sample t test vs. a hypothetical mean of 100 (baseline was 100%). Rotarod results between WT and δOR KO genotypes were compared with a mixed-effects model with fixed effects for timepoint, genotype, and timepoint × genotype.

[14] = 7-hydroxypaynantheine 30 mg∙kg^−1 s.c.
[15] = read-out: cAMP IC50, ref Gutridge et al., 2020
[16] = speciociliatine 3, 10 and 30 mg∙kg^−1 i.p.
[17] = 30 mg∙kg^−1 i.p., wild-type mice

T1 sequence (P42866 whole entry): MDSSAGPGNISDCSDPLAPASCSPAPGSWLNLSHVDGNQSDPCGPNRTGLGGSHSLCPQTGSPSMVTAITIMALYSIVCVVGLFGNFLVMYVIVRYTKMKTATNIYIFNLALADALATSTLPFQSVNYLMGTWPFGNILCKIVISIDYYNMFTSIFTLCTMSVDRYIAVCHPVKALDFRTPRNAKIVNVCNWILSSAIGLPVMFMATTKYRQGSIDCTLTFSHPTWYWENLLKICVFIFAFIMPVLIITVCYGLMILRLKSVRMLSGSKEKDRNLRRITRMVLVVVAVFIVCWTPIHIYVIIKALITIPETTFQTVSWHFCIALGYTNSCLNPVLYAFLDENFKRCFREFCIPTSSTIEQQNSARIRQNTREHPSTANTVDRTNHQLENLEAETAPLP
Sequence of κOR (P41145 whole entry): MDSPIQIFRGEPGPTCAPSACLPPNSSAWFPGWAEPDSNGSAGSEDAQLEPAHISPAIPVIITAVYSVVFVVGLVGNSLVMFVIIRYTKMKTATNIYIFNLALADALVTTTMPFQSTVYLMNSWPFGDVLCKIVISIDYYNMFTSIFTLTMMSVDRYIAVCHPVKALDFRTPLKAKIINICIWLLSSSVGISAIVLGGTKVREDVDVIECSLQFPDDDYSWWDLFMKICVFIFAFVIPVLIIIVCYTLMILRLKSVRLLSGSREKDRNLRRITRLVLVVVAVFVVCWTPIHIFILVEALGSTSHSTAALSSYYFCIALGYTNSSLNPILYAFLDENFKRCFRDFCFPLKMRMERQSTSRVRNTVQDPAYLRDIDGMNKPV
T4 sequence (P33534 whole entry): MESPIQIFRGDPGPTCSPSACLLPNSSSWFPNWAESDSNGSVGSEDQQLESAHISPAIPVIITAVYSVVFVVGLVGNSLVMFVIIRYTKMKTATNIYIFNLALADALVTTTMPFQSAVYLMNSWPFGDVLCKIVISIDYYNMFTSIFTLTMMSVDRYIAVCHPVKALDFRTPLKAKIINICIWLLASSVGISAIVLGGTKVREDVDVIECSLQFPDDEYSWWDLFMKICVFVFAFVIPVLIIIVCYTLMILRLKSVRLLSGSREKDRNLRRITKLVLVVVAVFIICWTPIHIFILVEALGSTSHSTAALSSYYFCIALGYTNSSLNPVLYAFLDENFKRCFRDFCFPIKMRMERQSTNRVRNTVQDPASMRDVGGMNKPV
T3 sequence (P32300 whole entry): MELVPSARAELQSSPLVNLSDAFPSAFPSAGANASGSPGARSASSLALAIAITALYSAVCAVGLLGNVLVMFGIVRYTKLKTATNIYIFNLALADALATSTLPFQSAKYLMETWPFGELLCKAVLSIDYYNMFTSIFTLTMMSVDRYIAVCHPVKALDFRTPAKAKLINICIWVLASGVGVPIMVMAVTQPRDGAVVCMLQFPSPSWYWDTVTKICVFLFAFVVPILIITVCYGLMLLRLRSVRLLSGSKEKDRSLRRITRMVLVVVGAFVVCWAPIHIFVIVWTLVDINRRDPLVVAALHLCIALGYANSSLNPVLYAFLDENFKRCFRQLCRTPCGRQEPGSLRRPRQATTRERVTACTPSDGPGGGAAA
Sequence of μOR (P35372 whole entry): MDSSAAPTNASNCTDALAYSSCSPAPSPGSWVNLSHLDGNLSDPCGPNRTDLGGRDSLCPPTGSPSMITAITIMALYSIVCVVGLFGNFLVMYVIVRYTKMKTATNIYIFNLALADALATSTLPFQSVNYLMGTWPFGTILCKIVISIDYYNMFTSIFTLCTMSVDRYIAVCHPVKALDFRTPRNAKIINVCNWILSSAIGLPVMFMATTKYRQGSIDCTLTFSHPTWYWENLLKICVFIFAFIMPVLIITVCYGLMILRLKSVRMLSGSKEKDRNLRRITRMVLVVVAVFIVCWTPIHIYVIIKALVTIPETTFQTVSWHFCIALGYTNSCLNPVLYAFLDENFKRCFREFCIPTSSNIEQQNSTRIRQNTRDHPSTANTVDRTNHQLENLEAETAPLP
T2 sequence (P41143 whole entry): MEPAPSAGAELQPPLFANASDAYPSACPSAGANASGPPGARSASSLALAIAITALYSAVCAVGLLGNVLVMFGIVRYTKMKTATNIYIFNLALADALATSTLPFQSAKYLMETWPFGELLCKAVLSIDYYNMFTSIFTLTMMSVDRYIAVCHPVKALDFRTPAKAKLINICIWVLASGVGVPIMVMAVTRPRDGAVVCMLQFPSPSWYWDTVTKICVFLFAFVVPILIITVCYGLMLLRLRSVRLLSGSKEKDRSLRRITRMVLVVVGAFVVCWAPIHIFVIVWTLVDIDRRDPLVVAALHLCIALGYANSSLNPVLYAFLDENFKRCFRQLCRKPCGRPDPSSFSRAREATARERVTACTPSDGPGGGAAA

For `COc1ccsc1CNCC[C@@]1(c2ccccn2)CCOC2(CCCC2)C1` [Oliceridine/TRV130, Oliceridine], the Alcohol consumption (wild-type C57Bl/6 mice [1]; selective activation of μOR G-protein signaling, ref Gutridge et al., 2020) is given as “did not decrease alcohol consumption”.
With `C=C[C@H]1CN2CC[C@@]3(O)C(=Nc4cccc(OC)c43)[C@@H]2C[C@@H]1/C(=C\OC)C(=O)OC` [7OH PAYN, 7-Hydroxypaynantheine] the Ki (μOR) was 6150 nM, the IC50 (HA-mouse µOR [2]) was 21800 nM and the Emax (HA-mouse µOR [2]) was 80 ± 40%. For the same compound, the “Decrease in ethanol consumption” value (wild-type C57Bl/6 mice [3]; 30 mg∙kg^−1 s.c.) was 1.1 ± 0.3 g/kg, the “Reduction in ethanol consumption” value (wild-type C57Bl/6 mice [3]; 30 mg∙kg^−1 s.c.) was 40 ± 11% and the Ethanol preference (wild-type C57Bl/6 mice [3]; [14]) was “corresponding decrease in ethanol preference”. For the same compound, the Water consumption (wild-type C57Bl/6 mice [3]; [14]) was “concomitant increase in water consumption”, the Alcohol intake (wild-type C57Bl/6 mice [3]; 7-hydroxypaynantheine 10 and 30 mg∙kg^−1 s.c.) was “significantly reduce alcohol intake” and the Ki (δOR [4]) was 12700 nM. It also gave an IC50 (FLAG-mouse δOR [5]) of 5740 nM, an Emax (FLAG-mouse δOR [5]) of 70 ± 20% and a Ki (κOR; Binding Ki (µM)) of 7.46 µM.
In the case of `CC[C@@H]1CN2CC[C@@]3(O)C(=Nc4cccc(OC)c43)[C@@H]2C[C@@H]1/C(=C\OC)C(=O)OC` [7-OH MITRA, 7-hydroxymitragynine, reference compound], the “cAMP α” value (HA-mouse µOR [6]) is listed as 84 ± 3, the “Hyperlocomotion induced by 7-hydroxymitragynine after naloxone pretreatment” value (C57Bl/6 male mice [7]) is listed as “blocked” and the “Hyperlocomotion and CPP” value (C57Bl/6 male mice [8]) is listed as “caused both hyperlocomotion and CPP”. For the same compound, the Ki (δOR [4]) was 190 nM, the “β-arrestin 2 α” value (δOR [9]) was 14 ± 1 and the “cAMP α” value (FLAG-mouse δOR [10]; normalized to Leu-enkephalin, ref Gutridge et al., 2020) was 80 ± 8. The IC50 (FLAG-mouse δOR [10]; [15]) was 960 nM, the “Minimal effective dose to reduce alcohol intake” value (wild-type C57Bl/6 mice [1]; ref Gutridge et al., 2020) was 3 mg/kg and the “cAMP α” value (FLAG-mouse κOR [11]; normalized to U50,488, ref Gutridge et al., 2020) was 77 ± 5. For the same compound, the IC50 (FLAG-mouse κOR [11]; [15]) was 1040 nM and the Ki (κOR; Binding Ki (µM)) was 0.14 µM.
`CC[C@H]1CN2CCc3c([nH]c4cccc(OC)c34)[C@@H]2C[C@@H]1/C(=C\OC)C(=O)OC` [SPG, speciogynine] gave a Ki (κOR; Binding Ki (µM)) of 3 µM and a Ki (κOR; Binding pKi) of 3.98 µM.
In the case of `C=CC1CN2CCC3(Nc4cccc(OC)c4C3=O)C2CC1C(=COC)C(=O)OC` (centres unmarked) [PAYN PI, Paynantheine Pseudoindoxyl], the Ki (μOR) is reported as 680 nM, the IC50 (HA-mouse µOR [2]) is reported as 4820 nM and the Emax (HA-mouse µOR [2]) is reported as 60 ± 6%. It also gave a Ki (δOR [4]) of 920 nM and a Ki (κOR; Binding Ki (µM)) of 1.31 µM.
In the case of `Oc1ccc2c3c1O[C@H]1c4oc5ccccc5c4C[C@@]4(O)[C@@H](C2)N(CC2CC2)CC[C@]314` [naltriben], the Alcohol consumption (wild-type C57Bl/6 mice [1]; 6 and 10 mg∙kg^−1, ref van Rijn and Whistler, 2009) is listed as “dose-dependently decreases alcohol consumption”.
For `Oc1ccc2c3c1O[C@H]1c4[nH]c5ccccc5c4C[C@@]4(O)[C@@H](C2)N(CC2CC2)CC[C@]314` [naltrindole], the Alcohol intake (wild-type C57Bl/6 mice [1]; 10 mg∙kg^−1, ref van Rijn and Whistler, 2009) is given as “does not decrease alcohol intake”.
With `CC[C@@H]1CN2CCc3c([nH]c4cccc(OC)c34)[C@H]2C[C@@H]1/C(=C\OC)C(=O)OC` [SPECIO, speciociliatine] the “Average decrease in ethanol consumption” value (wild-type C57Bl/6 mice [3]; 30 mg∙kg^−1 i.p.) was 2.5 ± 0.3 g/kg, the “Reduction in ethanol consumption” value (wild-type C57Bl/6 mice [3]; 30 mg∙kg^−1 i.p.) was 90 ± 3% and the Ethanol preference (wild-type C57Bl/6 mice [3]; speciociliatine 30 mg∙kg^−1 i.p.) was “significantly decreased”. The Ethanol consumption (wild-type C57Bl/6 mice [3]; [16]) was “significantly decreased ethanol consumption but only at the 30 mg∙kg^−1 dose”, the Water consumption (wild-type C57Bl/6 mice [3]; [16]) was “did not change water consumption” and the Ethanol preference (δOR KO mice) was “significantly decreased”. For the same compound, the Water consumption (δOR KO mice) was “did not change water consumption”, the Ki (δOR [4]) was 4340 nM and the Emax (FLAG-mouse κOR [12]; HEK293, read-out: cAMP α (% inhibition at maximal efficacy)) was 60 ± 7%. The “Seizure level observed in the rotarod assay” value ([13]; 30 mg/kg i.p., one δOR KO mouse) was 5–6, the “Mortality in the rotarod assay” value ([13]; 30 mg/kg i.p., δOR KO mice (n = 8)) was “one δOR KO mouse died” and the “Rotarod performance (latency to fall, % of baseline)” value [13, 17] was “significantly reduced the ability”. The “Time of full recovery on rotarod” value [13, 17] was 120 min, the Rotarod performance ([13]; 30 mg∙kg^−1 i.p., δOR KO mice) was “same effect was observed” and the Ki (κOR; Binding Ki (µM)) was 0.59 µM.
With `CC[C@H]1CN2CC[C@]3(Nc4cccc(OC)c4C3=O)[C@@H]2C[C@@H]1/C(=C\OC)C(=O)OC` [SPG PI, Speciogynine Pseudoindoxyl] the Ki (μOR) was 77 nM, the IC50 (HA-mouse µOR [2]) was 230 nM and the Emax (HA-mouse µOR [2]) was 58 ± 4%. For the same compound, the Ki (δOR [4]) was 940 nM, the IC50 (FLAG-mouse κOR [12]) was 20600 nM and the IC50 (FLAG-mouse δOR [5]) was 8530 nM. It also gave an Emax (FLAG-mouse δOR [5]) of 80 ± 20% and a Ki (κOR) of 0.75 µM.
